According to EPA's ToxValDB 9.5:
Values after ≈ are worked out from the molar mass of the structure shown. Values joined by “and” are separate entries in the source; they are usually repeats but may differ in a detail not shown here. Equal values may be shown once. Each block holds one compound with its values, some of them ahead of it.

How the values were obtained:
Ovis sp. = details: subchronic; oral; diet; F; no effects
Anas platyrhynchos = details: short-term; oral; feed; mortality
Oryctolagus sp. = details: for NOAEL: reproduction developmental; for LEL: no effects
Pontoscolex corethrurus = details: for LC50: acute, mortality
Daphnia magna = details: acute; mortality
Sus scrofa = details: Not specified; for LEL: oral
Bovidae = details: oral; for LEL: no effects
Gallus gallus = details: for LEL: subchronic
Numida meleagris = details: subchronic; duration: 85 days; no effects
Capra sp. = details: subchronic; no effects
Plant = details: not reported; other
Anabaena flosaquae = details: acute; duration: 72 hours; biomass
Bibionidae = details: chronic/long-term; duration: 28 days; seedling emergence
Canidae = details: chronic; duration: 2 years; oral; Dog Other; ophthalmoscopic examination
Carassius carassius = details: not reported; oral; feed; histopathology: nonneoplastic
Pelteobagrus fulvidraco = details: subchronic; duration: 10 weeks; oral; feed; histopathology: nonneoplastic
Equus caballus = details: not reported; neurology
Felidae = details: short-term; duration: 10 days; oral; diet; Cat; no effects
Oncorhynchus mykiss = details: acute; duration: 3 days; oral; capsule; no effects
[1] = subchronic, duration: 57 days, diet

LEL (Ovis sp.): 0.3 mg/kg-day
SMILES: Clc1ccc(C(c2ccccc2Cl)C(Cl)Cl)cc1 (stereo not given) [1-(2-Chlorophenyl)-1-(4-chlorophenyl)-2,2-dichloroethane]

SMILES: c1nc[nH]n1 [1H-1,2,4-Triazole]
LC50 (Colinus virginianus; acute, oral, diet, mortality): > 1410 mg/kg-day | LC50 (Anas platyrhynchos): > 1350 mg/kg-day | NOAEL (Rattus norvegicus; chronic, duration: 12 months, body weight): 6.9 mg/kg-day | NOAEL (Rattus norvegicus; reproduction developmental): 17 mg/kg-day (2×) and 30 mg/kg-day (2×) | NOAEL (Oryctolagus sp.; body weight): 30 mg/kg-day

SMILES: C/C=C(\C)C(=O)O [2-Butenoic acid, 2-methyl-, (2E)-]
LC50 (Pontoscolex corethrurus): 2010 mg/kg

SMILES: CC1=C(/C=C/C(C)=C/C=C/C(C)=C/C=C/C=C(C)/C=C/C=C(C)/C=C/C2=C(C)C(=O)[C@@H](O)CC2(C)C)C(C)(C)C[C@H](O)C1=O [3,3'-Dihydroxy-beta-carotene-4,4'-dione]
NOAEL (Mus musculus; chronic, duration: 80 weeks, oral, body weight): 14 mg/kg-day

SMILES: CC=Cc1ccc(OC)c(OC)c1 [4-Prop-1-enylveratrole]
NOAEL (Rattus norvegicus; short-term, duration: 28 days, oral, organ weight): 100 mg/kg-day | NOAEL (repeat dose other): 6 mg/kg-day

SMILES: CC/C=C\CCOC(C)OCC (stereo not drawn) [Acetaldehyde ethyl cis-3-hexenyl acetal]
LC50 (Pontoscolex corethrurus): 238 mg/kg | LC50 (Daphnia magna): 12 µg/mL (≈ 69.7 µM)

SMILES: CC(C)(c1ccc(O)cc1)c1ccc(O)cc1 [Bisphenol A]
NOAEL (Mus musculus; reproduction developmental, M/F, CD1, organ weight): 5 mg/kg-day

SMILES: O=c1c(CO)c/c(=N/Nc2ccc(S(=O)(=O)[O-])c3ccccc23)c(=O)/c1=N/Nc1ccc(S(=O)(=O)[O-])c2ccccc12.[Na+].[Na+] [Chocolate Brown HT]
NOAEL (Mus musculus; chronic, duration: 80 weeks, oral, diet, M/F, histopathology: nonneoplastic): 143 mg/kg-day

LEL (Bovidae; [1]): 45 mg/kg-day | LEL (Gallus gallus; duration: 8 weeks, oral, diet, clinical chemistry): 75 mg/kg-day | LEL (Gallus gallus; duration: 35 days, oral, diet, M, other): 500 mg/kg-day
SMILES: CSCCC(O)C(=O)[O-].CSCCC(O)C(=O)[O-].[Cu+2] (stereo not given) [Copper, bis[2-(hydroxy-?O)-4-(methylthio)butanoato-?O]-]
LEL (Sus scrofa; subchronic, duration: 42 days, diet, body weight): 340 mg/kg-day

LEL (Numida meleagris): ≤ 25 mg/kg | LEL (Capra sp.): ≤ 80 mg/kg | LEL (Oryctolagus sp.; repeat dose other, F): 6 mg/kg-day | LEL (Oryctolagus sp.; subchronic, duration: 35 days, oral, diet, M/F, New Zealand): 6 mg/kg-day | LEL (Sus scrofa; acute, duration: 3 days, no effects): 10 mg/kg-day | LEL (Bovidae; acute, duration: 3 days): ≤ 5 mg/kg-day | LEL (Gallus gallus; duration: 37 days, no effects): 25 mg/kg-day
SMILES: N#CC(c1ccc(Cl)cc1)c1c(Cl)cc(-n2ncc(=O)[nH]c2=O)cc1Cl (stereo not given) [Diclazuril]
NOAEL (Mus musculus; chronic, duration: 2 years, M, histopathology: nonneoplastic): 2.9 mg/kg-day | NOEC (Pontoscolex corethrurus; chronic/long-term, reproduction): 50 mg/kg | NOEC (repeat dose other, other): > 1 mg/kg-day | NOEC (Plant): 50.3 mg/kg | NOEC (Anabaena flosaquae): > 10.3 µg/L | NOEC (Bibionidae): 13.3 mg/kg

SMILES: C/C=C/C(=O)Oc1ccccc1[N+](=O)[O-].CCCCCCCC.O=NO [Dinocap]
LD50 (Colinus virginianus; acute, oral, mortality): > 2150 mg/kg-day | NOEL (Colinus virginianus; reproduction developmental, reproduction): 27.5 mg/kg-day | LD50 (Anas platyrhynchos): 367 mg/kg-day | NOAEL (Oryctolagus sp.; oral): 3 mg/kg-day | NOAEL (Canidae): 0.4 mg/kg-day

SMILES: CC(=O)Sc1cc(C)oc1C [Ethanethioic acid, S-(2,5-dimethyl-3-furanyl) ester]
NOAEL (Rattus norvegicus; subchronic, duration: 90 days): 0.73 mg/kg-day | NOAEL (subchronic, duration: 90 days): 0.73 mg/kg-day

SMILES: CCCC[C@@H](C)[C@@H](OC(=O)C[C@@H](CC(=O)O)C(=O)O)[C@H](C[C@@H](C)C[C@H](O)CCCC[C@@H](O)C[C@H](O)[C@H](C)N)OC(=O)C[C@@H](CC(=O)O)C(=O)O [Fumonisin B1]
NOAEL (Rattus norvegicus; subchronic): 0.2 mg/kg-day | LOAEL (Carassius carassius): 10 mg/kg | NOAEL (Pelteobagrus fulvidraco): 20 mg/kg | LOAEL (Sus scrofa; subchronic, clinical chemistry): 0.2 mg/kg-day | LOAEL (Equus caballus): 0.2 mg/kg-day | LOAEL (Bovidae; chronic, duration: 253 days, diet, M, histopathology: nonneoplastic): 2.4 mg/kg-day | LOAEL (Gallus gallus; short-term, duration: 21 days, oral, diet, clinical chemistry): 2 mg/kg-day

SMILES: OO [Hydrogen peroxide]
NOAEL (Mus musculus; subchronic, duration: 90 days, oral, drinking water, M/F, food consumption): 100 mg/kg-day

SMILES: C=CCOC(Cn1ccnc1)c1ccc(Cl)cc1Cl (stereo not given) [Imazalil]
NOAEL (Oryctolagus sp.; food consumption): 10 mg/kg-day | NOAEL (Oryctolagus sp.; histopathology: nonneoplastic): 5 mg/kg-day

LEL (Sus scrofa; subchronic, duration: 42 days, diet, clinical chemistry): 150 mg/kg-day | LEL (Bovidae; [1]): 450 mg/kg-day | LEL (Gallus gallus; duration: 8 weeks, oral, diet, no effects): 450 mg/kg-day
SMILES: CSCCC(O)C(=O)[O-].CSCCC(O)C(=O)[O-].[Mn+2] (stereo not given) [Manganese, bis[2-(hydroxy-?O)-4-(methylthio)butanoato-?O]-]

SMILES: Nc1nc(N)nc(N)n1 [Melamine]
NOAEL (Rattus norvegicus; subchronic, duration: 13 weeks, oral): 63 mg/kg-day | LEL (Felidae): 181 mg/kg-day | LEL (Sus scrofa; acute, duration: 3 days, diet, no effects): 400 mg/kg-day | LEL (Oncorhynchus mykiss): 456 mg/kg-day
